Assay [1] deals with Fisher 344 male rats (glycerol-induced renal trouble model). Description: Activity against glycerol-induced renal trouble model. The class given is in vivo, rat. Conditions: 0.3 mg/5 ml/kg orally 60 minutes before 50% glycerol i.m. 10 ml/kg, blood sampled after about 24 hours. Here is the method:
Fisher 344 male rats aged 8 weeks and weighing 200 to 230 g were kept without water for 18 hours prior to the use. Thereafter, the test compound was orally administered forcedly to the test group of rats in an amount of 0.3 mg/5 ml/kg, while a solvent [2% Tween 80 solution] to the control group of rats in an amount of 5 ml/kg. After 60 minutes from the administration of the test compound or solvent, a 50% solution of glycerol in physiological saline was intramuscularly administered to each rat through both left and right femoral muscles in an amount of 10 ml of kg. After the completion of the intramuscular administration, the rats were watered. After about 24 hours, the rats were etherized and blood was sampled from each rat. The blood samples thus prepared were each centrifuged to collect serum, which was analyzed for urea nitrogen and creatinine.

The test system of assay [2] is Fisher 344 male rats (cisplatin-induced trouble model). Description: Activity against cisplatin-induced gastric trouble model. The class given is in vivo, rat. As to conditions: cisplatin 6 mg/5 ml/kg s.c., 1 mg/5 ml/kg orally, repeated over four days, blood sampled on the fifth day. Here is the method: Cisplatin was subcutaneously administered to Fisher 344 male rats aged 7 weeks and weighing 170 to 200 g in an amount of 6 mg/5 ml/kg. Immediately after the administration, the test compound was orally administered forcedly to the test group of rats in an amount of 1 mg/5 ml/kg, while a solvent (2% Tween 80 solution) to the control group of rats in an amount of 5 ml/kg. Six hours after the administration, the administration of the test compound and the solvent to the test group and the control group respectively was conducted in a similar manner to that described above. Thereafter, the same administration was repeated on the next day twice, and on the third and forth days each once. On the fifth day, the rats were etherized and blood was sampled from each rat. The blood samples thus prepared were analyzed for serum urea nitrogen and creatinine.

The subject of the next assay is Fisher male rats. The assay can be described thus: Diuretic activity. Type of assay: in vivo, rat. Conditions: 1 mg/25 ml/kg orally in 0.4% Tween 80 in physiological saline; urine collected for 2 hours. The procedure:
Fisher male rats aged 8 weeks and weighing 190 to 210 g were fasted for 18 hours prior to the use. The test compound was orally administered forcedly to the test group of rats in a state dispersed in a 0.4% solution of Tween 80 in physiological saline in an amount of 1 mg/25 ml/kg, while a 0.4% solution of Tween 80 in physiological saline to the control group of rats in the same amount as that administered to the test group. Immediately after the administration, the rats were put in individual metabolism cages respectively to collect urine from each rat for 2 hours. The urinary volume of each rat was determined and thereafter the urine was examined for uric acid concentration to calculate the amount of uric acid egested. The control group was composed of six rats, while the test group three rats. The amounts of uric acid excreted from the rats of each group were averaged out to determine the increment of the excretion of uric acid based on the averages.

For assay [3], the target named is T1, right atrium of Hartley male guinea pigs (heart rate lowering effect of adenosine) (Cavia porcellus, UniProt P47745).
T1 construct: the right atrium was extirpated from the heart; from tissue; host or cells: isolated right atrium of Hartley male guinea pigs
T1 sequence (P47745 1-326): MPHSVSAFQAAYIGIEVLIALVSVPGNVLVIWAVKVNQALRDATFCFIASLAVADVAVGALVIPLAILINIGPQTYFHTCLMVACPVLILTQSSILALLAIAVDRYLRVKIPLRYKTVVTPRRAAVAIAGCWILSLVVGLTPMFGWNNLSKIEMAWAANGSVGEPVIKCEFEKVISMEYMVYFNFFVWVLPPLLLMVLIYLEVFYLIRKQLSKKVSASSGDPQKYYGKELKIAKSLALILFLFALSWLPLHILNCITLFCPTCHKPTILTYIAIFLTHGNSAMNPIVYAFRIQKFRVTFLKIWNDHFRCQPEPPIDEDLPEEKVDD
The assay can be described thus: Adenosine antagonism (heart rate lowering effect of adenosine in isolated right atrium). Type of assay: cell-based. Conditions: guinea pig right atrium, 37° C., dipyridamole added, 20 minutes with test compound, adenosine added cumulatively; spontaneous heart rate; read-out: pA2 value (adenosine antagonism) (converted). The procedure:
Hartley male guinea pigs weighing 250 to 400 g were beaten to death. The heart was immediately extirpated from each guinea pig and put in the Krebs-Heuseleit solution saturated with a gas mixture comprising 95% of oxygen and 5% of carbon dioxide. Thereafter, the right atrium was extirpated from the heart. The samples thus preparer were each vertically suspended in a Magnus tube (capacity: 6 ml) filled with a nutrient liquid at 37° C. and the same gas mixture as that used above was passed through the tube.
The change in tension was isometrically determined under a load of about 0.5 g and the spontaneous heart rate was measured and recorded with a cardiotachometer by utilizing the signal of the change as a trigger.
After the stabilization of the sample, 10^-5 mol of dipyridamole was added to each Magnus tube. Thereafter, the test compound was added directly to each of the Magnus tubes of the test group in a state dissolved in DMSO, while a solvent (DMSO) to each of the Magnus tubes of the control group in the same amount as that added to each Magnus tube of the test group. The resulting Magnus tubes was allowed to stand for 20 minutes. […]
The EC50 value with respect to the heart rate lowering effect of adenosine was calculated and the adenosine antagonism was represented by pA2 value (-log M).

For `O=C(/C=C/c1c[nH]nc1-c1cccc(F)c1)NC(Cc1ccccn1)c1cc(Cl)ccn1` (single isomer, unassigned; (+)) [Example 2, (+)-(E)-N-{1-(4-Chloropyridin-2-yl)-2-(pyridin-2-yl)ethyl}-3-{3-(3-fluorophenyl)-1H-pyrazol-4-yl}-2-propenamide], the serum creatinine in assay [1] (*P < 0.05 vs control (4.76 ± 0.21)) amounted to 3.47 ± 0.30 mg/dL; in assay [2] (*P < 0.05 vs control (2.15 ± 0.16)), 1.49 ± 0.04 mg/dL. For the same compound, the figures for the Serum urea nitrogen in assay [1] (*P < 0.05 vs control (185.4 ± 3.2)) and in assay [2] (*P < 0.05 vs control (93.4 ± 6.5)) were 142.4 ± 10.5 mg/dL and 52.9 ± 2.3 mg/dL, respectively. In addition, the “amount of uric acid excreted (control group taken as 100%)” value in the assay on Fisher male rats is listed as 166%. Moreover, the “urinary volume of the test group (control group taken as 100%)” value in the assay with Fisher male rats is 605%. Besides, the Kb in assay [3] was 38.9 pM.

For the origin of these results see patent US5541213A, “Propenoic acid derivatives diazole propenoic acid compounds which have useful pharmaceutical utility” (Eisai Co., Ltd., priority 1993, dated 1996).
